Measured values: ChEMBL document CHEMBL1201862, “PubChem BioAssay data set” (2004)
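Where inhibition never reached the appropriate level, the endpoint shown equals the highest concentration tested. Otherwise, values were interpolated linearly from a five-concentration, 48-hour dose response in 96-well plates. GI50 = concentration required for 50% inhibition of growth.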 Activity calls are given as the source filed them. Cut-off read from the data, not from the text of the source: active = GI50 up to about 1.1 µM and inactive = higher.

What was measured:
Test in all cases: NCI tumour cell line growth inhibition, 48 h
786-0 = test system: 786-0
A498 = test system: A498
A549 = test system: A549
ACHN = test system: ACHN
CAKI-1 = test system: CAKI-1
CCRF-CEM = test system: CCRF-CEM
COLO 205 = test system: COLO 205
DLD-1 = test system: DLD-1
DMS-114 = test system: DMS-114
DMS-273 = test system: DMS-273
EKVX = test system: EKVX
HCC 2998 = test system: HCC 2998
HCT-116 = test system: HCT-116
HOP-18 = test system: HOP-18
HOP-62 = test system: HOP-62
HOP-92 = test system: HOP-92
HT-29 = test system: HT-29
IGROV-1 = test system: IGROV-1
K562 = test system: K562
KM12 = test system: KM12
LOX IMVI = test system: LOX IMVI
LXFL 529 = test system: LXFL 529
M14 = test system: M14
M19-MEL = test system: M19-MEL
MOLT-4 = test system: MOLT-4
Malme-3M = test system: Malme-3M
NCI-H226 = test system: NCI-H226
NCI-H23 = test system: NCI-H23
NCI-H460 = test system: NCI-H460
NCI-H522 = test system: NCI-H522
OVCAR-3 = test system: OVCAR-3
OVCAR-4 = test system: OVCAR-4
OVCAR-5 = test system: OVCAR-5
OVCAR-8 = test system: OVCAR-8
RPMI-8226 = test system: RPMI-8226
RXF 631 = test system: RXF 631
SF-268 = test system: SF-268
SF-295 = test system: SF-295
SF-539 = test system: SF-539
SK-MEL-28 = test system: SK-MEL-28
SK-MEL-2 = test system: SK-MEL-2
SK-MEL-5 = test system: SK-MEL-5
SK-OV-3 = test system: SK-OV-3
SN12C = test system: SN12C
SNB-19 = test system: SNB-19
SNB-75 = test system: SNB-75
SNB-78 = test system: SNB-78
SR = test system: SR
SW-620 = test system: SW-620
TK-10 = test system: TK-10
U-251 = test system: U-251
UACC-257 = test system: UACC-257
UACC-62 = test system: UACC-62
UO-31 = test system: UO-31
XF498 = test system: XF498
HCT-15 = test system: HCT-15
HL-60 = test system: HL-60
KM-20L2 = test system: KM-20L2
RXF 393 = test system: RXF 393

CCn1c(C)nc([N+](=O)[O-])c1Sc1ncc[nH]1
GI50 (786-0): > 100 µM (inactive)
GI50 (A498): > 100 µM (inactive)
GI50 (A549): > 100 µM (inactive)
GI50 (ACHN): 48.1 µM (inactive)
GI50 (CAKI-1): 68.1 µM (inactive)
GI50 (CCRF-CEM): 19.8 µM (inactive)
GI50 (COLO 205): 27.9 µM (inactive)
GI50 (DLD-1): 30.5 µM (inactive)
GI50 (DMS-114): 34.4 µM (inactive)
GI50 (DMS-273): 57.1 µM (inactive)
GI50 (EKVX): 75.7 µM (inactive)
GI50 (HCC 2998): > 100 µM (inactive)
GI50 (HCT-116): 43.2 µM (inactive)
GI50 (HOP-18): 4.8 µM (inactive)
GI50 (HOP-62): > 100 µM (inactive)
GI50 (HOP-92): 25.8 µM (inactive)
GI50 (HT-29): 78.7 µM (inactive)
GI50 (IGROV-1): 71 µM (inactive)
GI50 (K562): 31.4 µM (inactive)
GI50 (KM12): > 100 µM (inactive)
GI50 (LOX IMVI): 14.7 µM (inactive)
GI50 (LXFL 529): 26.1 µM (inactive)
GI50 (M14): 32.4 µM (inactive)
GI50 (M19-MEL): 36.8 µM (inactive)
GI50 (MOLT-4): 16.7 µM (inactive)
GI50 (Malme-3M): 20.1 µM (inactive)
GI50 (NCI-H226): > 100 µM (inactive)
GI50 (NCI-H23): 29.9 µM (inactive)
GI50 (NCI-H460): 66.2 µM (inactive)
GI50 (NCI-H522): 15.6 µM (inactive)
GI50 (OVCAR-3): 74.8 µM (inactive)
GI50 (OVCAR-4): 64.4 µM (inactive)
GI50 (OVCAR-5): > 100 µM (inactive)
GI50 (OVCAR-8): 46.1 µM (inactive)
GI50 (RPMI-8226): 21.1 µM (inactive)
GI50 (RXF 631): 24.7 µM (inactive)
GI50 (SF-268): 69.7 µM (inactive)
GI50 (SF-295): > 100 µM (inactive)
GI50 (SF-539): 52.6 µM (inactive)
GI50 (SK-MEL-28): 31 µM (inactive)
GI50 (SK-MEL-2): 25.4 µM (inactive)
GI50 (SK-MEL-5): 48.4 µM (inactive)
GI50 (SK-OV-3): > 100 µM (inactive)
GI50 (SN12C): 37 µM (inactive)
GI50 (SNB-19): > 100 µM (inactive)
GI50 (SNB-75): 50.6 µM (inactive)
GI50 (SNB-78): 33.7 µM (inactive)
GI50 (SR): 23.3 µM (inactive)
GI50 (SW-620): 48.2 µM (inactive)
GI50 (TK-10): > 100 µM (inactive)
GI50 (U-251): 44 µM (inactive)
GI50 (UACC-257): 39.4 µM (inactive)
GI50 (UACC-62): 28.5 µM (inactive)
GI50 (UO-31): 30.5 µM (inactive)
GI50 (XF498): 43.2 µM (inactive)

CCOC(=O)C(C(O)c1ccc([N+](=O)[O-])cc1)P(=O)(OCC)OCC (centres undefined)
GI50 (786-0): > 100 µM (inactive)
GI50 (A498): > 100 µM (inactive)
GI50 (A549): > 100 µM (inactive)
GI50 (ACHN): > 100 µM (inactive)
GI50 (CAKI-1): > 100 µM (inactive)
GI50 (CCRF-CEM): 35.5 µM (inactive)
GI50 (DLD-1): > 100 µM (inactive)
GI50 (DMS-273): > 100 µM (inactive)
GI50 (EKVX): > 100 µM (inactive)
GI50 (HCC 2998): > 100 µM (inactive)
GI50 (HCT-116): > 100 µM (inactive)
GI50 (HCT-15): > 100 µM
GI50 (HL-60): 16.7 µM (inactive)
GI50 (HOP-18): > 100 µM (inactive)
GI50 (HOP-62): > 100 µM (inactive)
GI50 (HOP-92): 34 µM (inactive)
GI50 (HT-29): > 100 µM (inactive)
GI50 (IGROV-1): > 100 µM (inactive)
GI50 (K562): 31.3 µM (inactive)
GI50 (KM-20L2): > 100 µM (inactive)
GI50 (KM12): > 100 µM (inactive)
GI50 (LOX IMVI): 72.9 µM (inactive)
GI50 (LXFL 529): > 100 µM (inactive)
GI50 (M14): > 100 µM (inactive)
GI50 (M19-MEL): 77.6 µM (inactive)
GI50 (MOLT-4): 57.9 µM (inactive)
GI50 (Malme-3M): > 100 µM (inactive)
GI50 (NCI-H226): > 100 µM (inactive)
GI50 (NCI-H23): > 100 µM (inactive)
GI50 (NCI-H460): > 100 µM (inactive)
GI50 (NCI-H522): 29.2 µM (inactive)
GI50 (OVCAR-3): > 100 µM (inactive)
GI50 (OVCAR-4): > 100 µM (inactive)
GI50 (OVCAR-5): > 100 µM (inactive)
GI50 (OVCAR-8): 95.1 µM (inactive)
GI50 (RPMI-8226): 32.9 µM (inactive)
GI50 (RXF 393): 36.5 µM (inactive)
GI50 (RXF 631): > 100 µM (inactive)
GI50 (SF-268): > 100 µM (inactive)
GI50 (SF-295): > 100 µM (inactive)
GI50 (SF-539): > 100 µM (inactive)
GI50 (SK-MEL-28): > 100 µM (inactive)
GI50 (SK-MEL-2): > 100 µM (inactive)
GI50 (SK-MEL-5): 99.8 µM (inactive)
GI50 (SN12C): > 100 µM (inactive)
GI50 (SNB-19): > 100 µM (inactive)
GI50 (SNB-75): 35.4 µM (inactive)
GI50 (SW-620): 57.3 µM (inactive)
GI50 (TK-10): > 100 µM (inactive)
GI50 (U-251): > 100 µM (inactive)
GI50 (UACC-62): 52.1 µM (inactive)
GI50 (XF498): > 100 µM (inactive)

COc1cc2c(cc1C)[n+]([O-])c(C)c(C(=O)C/C(=N/NC(=O)C[N+](C)(C)C)C(=O)Nc1cccc(Cl)c1C)[n+]2[O-]
GI50 (786-0): > 100 µM (inactive)
GI50 (A498): > 100 µM (inactive)
GI50 (A549): > 100 µM (inactive)
GI50 (ACHN): > 100 µM (inactive)
GI50 (CAKI-1): > 100 µM (inactive)
GI50 (CCRF-CEM): 49.9 µM (inactive)
GI50 (COLO 205): > 100 µM (inactive)
GI50 (DLD-1): > 100 µM (inactive)
GI50 (DMS-114): > 100 µM (inactive)
GI50 (DMS-273): > 100 µM (inactive)
GI50 (EKVX): > 100 µM (inactive)
GI50 (HCC 2998): > 100 µM (inactive)
GI50 (HCT-116): > 100 µM (inactive)
GI50 (HCT-15): > 100 µM
GI50 (HL-60): > 100 µM (inactive)
GI50 (HOP-18): > 100 µM (inactive)
GI50 (HOP-62): > 100 µM (inactive)
GI50 (HOP-92): > 100 µM (inactive)
GI50 (HT-29): > 100 µM (inactive)
GI50 (IGROV-1): > 100 µM (inactive)
GI50 (K562): > 100 µM (inactive)
GI50 (KM-20L2): > 100 µM (inactive)
GI50 (KM12): > 100 µM (inactive)
GI50 (LOX IMVI): > 100 µM (inactive)
GI50 (LXFL 529): > 100 µM (inactive)
GI50 (M14): > 100 µM (inactive)
GI50 (MOLT-4): > 100 µM (inactive)
GI50 (Malme-3M): > 100 µM (inactive)
GI50 (NCI-H226): > 100 µM (inactive)
GI50 (NCI-H23): > 100 µM (inactive)
GI50 (NCI-H460): > 100 µM (inactive)
GI50 (NCI-H522): > 100 µM (inactive)
GI50 (OVCAR-3): > 100 µM (inactive)
GI50 (OVCAR-4): > 100 µM (inactive)
GI50 (OVCAR-5): > 100 µM (inactive)
GI50 (OVCAR-8): > 100 µM (inactive)
GI50 (RPMI-8226): > 100 µM (inactive)
GI50 (RXF 393): > 100 µM (inactive)
GI50 (RXF 631): > 100 µM (inactive)
GI50 (SF-268): > 100 µM (inactive)
GI50 (SF-295): > 100 µM (inactive)
GI50 (SF-539): > 100 µM (inactive)
GI50 (SK-MEL-28): > 100 µM (inactive)
GI50 (SK-MEL-2): > 100 µM (inactive)
GI50 (SK-MEL-5): > 100 µM (inactive)
GI50 (SN12C): > 100 µM (inactive)
GI50 (SNB-19): > 100 µM (inactive)
GI50 (SNB-75): > 100 µM (inactive)
GI50 (SNB-78): > 100 µM (inactive)
GI50 (SR): > 100 µM (inactive)
GI50 (SW-620): > 100 µM (inactive)
GI50 (TK-10): > 100 µM (inactive)
GI50 (U-251): > 100 µM (inactive)
GI50 (UACC-257): > 100 µM (inactive)
GI50 (UACC-62): > 100 µM (inactive)
GI50 (UO-31): > 100 µM (inactive)
GI50 (XF498): > 100 µM (inactive)
